In ChEMBL document CHEMBL1201862, “PubChem BioAssay data set” (2004):
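Assay format: 96-well plates, 48-hour exposure. GI50 marks 50% less growth.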 Calls of active or inactive are those of the source. No stated cut-off is given here; in the data, active = GI50 up to about 1.1 µM and inactive = higher.

How the values were obtained:
Assay in all cases: NCI anticancer screen, dose series, 48 h
786-0 = tested on: 786-0
CAKI-1 = tested on: CAKI-1
CCRF-CEM = tested on: CCRF-CEM
COLO 205 = tested on: COLO 205
HCT-116 = tested on: HCT-116
HT-29 = tested on: HT-29
KM-20L2 = tested on: KM-20L2
LOX IMVI = tested on: LOX IMVI
M14 = tested on: M14
MOLT-4 = tested on: MOLT-4
Malme-3M = tested on: Malme-3M
NCI-H23 = tested on: NCI-H23
OVCAR-5 = tested on: OVCAR-5
SF-295 = tested on: SF-295
SF-539 = tested on: SF-539
SK-MEL-2 = tested on: SK-MEL-2
SW-620 = tested on: SW-620
TK-10 = tested on: TK-10

Measured: GI50

CCN(CC)CCNc1ccc2nnn3c4ccc(C)cc4c(=O)c1c23
inactive: 786-0 5.66 µM | CAKI-1 13.2 µM | CCRF-CEM 4.16 µM | COLO 205 5.87 µM | HCT-116 3.78 µM | HT-29 4.14 µM | KM-20L2 6.32 µM | LOX IMVI 3.61 µM | M14 12.8 µM | MOLT-4 3.07 µM | Malme-3M 12.6 µM | NCI-H23 11.7 µM | OVCAR-5 6.71 µM | SF-295 5.02 µM | SF-539 6.14 µM | SK-MEL-2 13.7 µM | SW-620 4.63 µM | TK-10 12.2 µM

COc1ccc2c(c1)CCC(OS(=O)(=O)CC13CCC(CC1=O)C3(C)C)C2=O (centres undefined)
inactive: 786-0 18.8 µM | CAKI-1 40.6 µM | CCRF-CEM 18.8 µM | COLO 205 33.7 µM | HCT-116 24.3 µM | KM-20L2 19.5 µM | LOX IMVI 15.6 µM | M14 29.5 µM | MOLT-4 20.8 µM | Malme-3M 43 µM | NCI-H23 17.3 µM | OVCAR-5 37.2 µM | SF-539 21.5 µM | SK-MEL-2 23.9 µM | SW-620 26.4 µM | TK-10 39.6 µM

N#CC(C(=O)/C(=N/NC(=O)c1ccccc1O)C(C#N)c1ccc(Cl)cc1)c1ccc(Cl)cc1 (centres undefined)
inactive: 786-0 15.9 µM | CCRF-CEM 4.26 µM | COLO 205 29.9 µM | HCT-116 17.4 µM | HT-29 12.1 µM | KM-20L2 13.7 µM | LOX IMVI 14.3 µM | M14 19.2 µM | MOLT-4 > 10 µM | Malme-3M 12.4 µM | NCI-H23 11.5 µM | OVCAR-5 20 µM | SF-295 16.4 µM | SF-539 17.3 µM | SK-MEL-2 16.5 µM | SW-620 15.2 µM | TK-10 17.5 µM

N#CC(C(=O)/C(=N\NC(N)=O)C(C#N)c1ccccc1)c1ccccc1 (centres undefined)
inactive: 786-0 > 100 µM | CAKI-1 > 100 µM | CCRF-CEM > 100 µM | COLO 205 > 100 µM | HCT-116 > 100 µM | HT-29 > 100 µM | KM-20L2 > 100 µM | M14 > 100 µM | MOLT-4 > 100 µM | Malme-3M > 100 µM | NCI-H23 > 100 µM | OVCAR-5 > 100 µM | SF-295 > 100 µM | SF-539 > 100 µM | SK-MEL-2 > 100 µM | SW-620 > 100 µM | TK-10 > 100 µM

COc1ccc2c(c1)C1C(CO2)C(c2ccccc2)=NN1c1ccccc1 (centres undefined)
inactive: 786-0 > 100 µM | CCRF-CEM > 100 µM | COLO 205 > 100 µM | HCT-116 > 100 µM | HT-29 > 100 µM | KM-20L2 > 100 µM | LOX IMVI > 100 µM | MOLT-4 94.8 µM | Malme-3M > 100 µM | NCI-H23 > 100 µM | OVCAR-5 > 100 µM | SF-295 > 100 µM | SF-539 > 100 µM | SK-MEL-2 > 100 µM | SW-620 > 100 µM | TK-10 > 100 µM

c1ccc(CN(Cn2cccn2)Cn2cccn2)nc1
inactive: 786-0 > 100 µM | CAKI-1 > 100 µM | CCRF-CEM > 100 µM | COLO 205 > 100 µM | HCT-116 61.5 µM | KM-20L2 > 100 µM | LOX IMVI > 100 µM | M14 > 100 µM | MOLT-4 > 100 µM | NCI-H23 > 100 µM | SF-295 > 100 µM | SK-MEL-2 > 100 µM | SW-620 > 100 µM | TK-10 > 100 µM

NC(=O)c1cccc([N+](=O)[O-])c1
inactive: 786-0 > 100 µM | CAKI-1 > 100 µM | CCRF-CEM > 100 µM | COLO 205 > 100 µM | HT-29 > 100 µM | KM-20L2 > 100 µM | LOX IMVI > 100 µM | M14 > 100 µM | MOLT-4 > 100 µM | Malme-3M > 100 µM | NCI-H23 > 100 µM | SF-295 > 100 µM | SF-539 > 100 µM | SK-MEL-2 > 100 µM | SW-620 > 100 µM | TK-10 > 100 µM

CC(C)(C)C1CCC(CI)(N=[N+]=[N-])CC1 (centres undefined)
inactive: 786-0 > 100 µM | CAKI-1 > 100 µM | CCRF-CEM > 100 µM | COLO 205 > 100 µM | HCT-116 > 100 µM | HT-29 > 100 µM | KM-20L2 > 100 µM | M14 > 100 µM | MOLT-4 > 100 µM | Malme-3M > 100 µM | NCI-H23 > 100 µM | OVCAR-5 > 100 µM | SF-295 > 100 µM | SF-539 > 100 µM | SK-MEL-2 61.1 µM | SW-620 > 100 µM | TK-10 > 100 µM

COC(=O)C1CC/C(=N/C2c3ccccc3-c3ccccc32)N1 (centres undefined)
inactive: 786-0 > 100 µM | CAKI-1 > 100 µM | CCRF-CEM 58.6 µM | COLO 205 47.8 µM | HCT-116 > 100 µM | HT-29 > 100 µM | KM-20L2 > 100 µM | LOX IMVI > 10 µM | M14 > 100 µM | MOLT-4 24.2 µM | Malme-3M > 100 µM | NCI-H23 > 100 µM | OVCAR-5 > 100 µM | SF-295 > 100 µM | SK-MEL-2 > 100 µM | SW-620 > 100 µM | TK-10 > 100 µM

CCOc1ccc(/C=C(\Cl)c2ccc(OC)c(OC)c2)cc1
inactive: 786-0 > 100 µM | CCRF-CEM 37.1 µM | COLO 205 48.2 µM | HCT-116 32.6 µM | HT-29 16.6 µM | KM-20L2 16.7 µM | M14 25.3 µM | MOLT-4 26.2 µM | Malme-3M 58.9 µM | NCI-H23 19.3 µM | SF-295 80.9 µM | SF-539 > 100 µM | SW-620 50.6 µM

CNC(N)NC
inactive: 786-0 > 100 µM | CCRF-CEM > 100 µM | COLO 205 > 100 µM | HCT-116 > 100 µM | HT-29 > 100 µM | KM-20L2 > 100 µM | LOX IMVI > 100 µM | M14 > 100 µM | MOLT-4 > 100 µM | Malme-3M > 100 µM | NCI-H23 > 100 µM | OVCAR-5 > 100 µM | SF-295 > 100 µM | SF-539 > 100 µM | SK-MEL-2 > 100 µM | SW-620 > 100 µM | TK-10 > 100 µM

Nc1ccccc1C(=O)C(Br)C(Br)c1ccc2c(c1)OCO2 (centres undefined)
inactive: 786-0 31 µM | CCRF-CEM 26 µM | COLO 205 14.2 µM | HCT-116 16.4 µM | HT-29 17.3 µM | KM-20L2 17.2 µM | LOX IMVI 14 µM | M14 18.4 µM | MOLT-4 25.1 µM | Malme-3M 18.4 µM | NCI-H23 19.9 µM | SF-295 27.6 µM | SF-539 18.4 µM | SK-MEL-2 16.9 µM | SW-620 32.6 µM | TK-10 27.4 µM

O=C1OC(c2ccc(Cl)c3ccccc23)c2ccccc21 (centres undefined)
inactive: 786-0 67.6 µM | CAKI-1 75.5 µM | CCRF-CEM 91.6 µM | COLO 205 > 100 µM | HCT-116 91.2 µM | HT-29 55.3 µM | KM-20L2 64.3 µM | M14 > 100 µM | MOLT-4 77.6 µM | Malme-3M > 100 µM | NCI-H23 > 100 µM | OVCAR-5 > 100 µM | SF-295 70.5 µM | SF-539 > 100 µM | SK-MEL-2 > 100 µM
